Test results published in ChEMBL document CHEMBL3137667, “[Drug-induced liver injury; fourteenth updated edition of the bibliographic database of liver injuries and related drugs]” (Gastroenterol Clin Biol, 2004).

Assays:
[1] = Highest frequency of moderate liver toxicity observed during clinical trials, expressed as a percentage. [column '% BIOL' in source]; settings: human
[2] = human
[3] = human, serum
[4] = Highest frequency of acute liver toxicity observed during clinical trials, expressed as a percentage. [column '% AIGUE' in source]; settings: human
[5] = human; remark: listed apart in the source
[6] = human; remark: listed apart in the source
[7] = human; remark: listed apart in the source
[8] = human, serum, 4383 h
[9] = human; remark: listed apart in the source
[10] = Comments (NB not yet translated). [column 'COMMENTAIRES' in source]; settings: human
[11] = human; remark: listed apart in the source
[12] = Presence of at least one case with successful reintroduction. [column 'REINT' in source]; settings: human
[13] = human; remark: listed apart in the source
[14] = human, serum; remark: listed apart in the source
[15] = Times to onset, minimal and maximal, observed in the indexed observations. [column 'DELAI' in source]; settings: human
[16] = human; remark: listed apart in the source
[17] = Proposed mechanism(s) of liver damage. [column 'MEC' in source]; settings: human
[18] = human; remark: listed apart in the source
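For Hepatotoxicity (association with vascular disease) in this document: count of indexed literature references reporting vascular liver injury in humans, e.g. peliosis hepatitis, hepatic veno-occlusive disease or Budd-Chiari syndrome.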
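For Hepatotoxicity (benign tumour) in this document: value is a count of indexed literature references citing a benign tumour confirmed by histopathology.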
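For Hepatotoxicity (choleostasis) in this document: human cholestatic liver injury, shown by histopathology or by peak ALT or AST elevation over alkaline phosphatase ratio below 2, value counts indexed literature reports.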
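For Hepatotoxicity (chronic liver disease) in this document: chronic liver injury confirmed by histopathology or persistently raised serum aminotransferase activity beyond 6 months, value given as the count of indexed literature references.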
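For Hepatotoxicity (cirrhosis) in this document: value is a count of indexed literature references reporting cirrhosis confirmed by histopathology.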
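For Hepatotoxicity (cytolytic) in this document: human cytolytic liver injury, shown by histopathology or by a ratio above 5 of peak ALT or AST elevation to alkaline phosphatase elevation, value counts indexed references.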
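For Hepatotoxicity (granulomatous hepatitis) in this document: value is a count of indexed literature references reporting granulomatous liver disease confirmed by histopathology.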
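For Hepatotoxicity (malignant tumour) in this document: malignant tumour confirmed by histopathology, value gives the count of indexed literature references reporting it.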
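For Hepatotoxicity (severe hepatitis) in this document: human clinical data: severe hepatitis, meaning potentially life-threatening liver failure or clinically observed cases, the value counts how many indexed literature references report it.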
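For Hepatotoxicity (steatosis) in this document: steatosis confirmed by histopathology, value is the count of indexed references.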

Row | SMILES | Hepatotoxicity (moderate) [1] [%] | Hepatotoxicity (cirrhosis) [2] | Hepatotoxicity (acute) [3] | Hepatotoxicity (acute) [4] [%] | Hepatotoxicity (cytolytic) [5] | Hepatotoxicity (severe hepatitis) [6] | Hepatotoxicity (choleostasis) [7] | Hepatotoxicity (chronic liver disease) [8] | Hepatotoxicity (granulomatous hepatitis) [9] | Hepatotoxicity (comment) [10] | Hepatotoxicity (malignant tumour) [11] | Hepatotoxicity (successful reintroduction) [12] | Hepatotoxicity (association with vascular disease) [13] | Hepatotoxicity (moderate) [14] | Hepatotoxicity (time to onset) [15] | Hepatotoxicity (steatosis) [16] | Hepatotoxicity (mechanism) [17] | Hepatotoxicity (benign tumour) [18] | other results
1 | CC[C@H]1[C@@H]2C[C@H]3[C@@H]4N(C)c5ccccc5[C@]45C[C@@H]([C@@H]2[C@H]5O)N3[C@@H]1O [AJMALINE] | 0 | 1 | 29 | 0.1 | 6 | 0 | 28 | 1 | 0 | CHOLESTASE_PROLONGEE RC/AMIODARONE | 0 | yes | 0 | 2 | 1 day - 4 years | 0 | Allergic | 0 | 
2 | Oc1ncnc2[nH]ncc12 [ALLOPURINOL] | 3.1 | 0 | 47 | 0.1 | 26 | 12 | 12 | 0 | 13 | CHOLANGITE RC/METHYLDOPA REACTIVATION_HSV6 | 0 | yes | 0 | 14 | 6 days - 5 years | 4 | Allergic | 0 | 
3 | O=C(O)CCCCCCNC1c2ccccc2CCc2ccccc21 [AMINEPTINE] | 0.6 | 1 | 20 | 0 | 17 | 0 | 18 | 0 | 0 | RC/CLOMIPRAMINE | 0 | yes | 0 | 6 | 1 day - 10 months | 5 | Allergic, Reactive metabolite | 0 | 
4 | CC1(C)S[C@@H]2[C@H](NC(=O)[C@H](N)c3ccccc3)C(=O)N2[C@H]1C(=O)O [AMPICILLIN] | 20 | 0 | 9 | 0 | 3 | 1 | 4 | 0 | 0 | #CBP CHOLECYSTITE_ACALCULEUSE | 0 | yes | 0 | 7 | 2 days - 2 weeks | 0 | Allergic | 0 | 
5 | CCc1oc2ccccc2c1C(=O)c1ccc(O)cc1 [BENZARONE] | 0 | 1 | 5 | 0 | 3 | 2 | 0 | 3 | 0 | AC_ANTI-ML/-N | 0 | yes | 0 | 0 | 2 weeks - 2 years | 0 | Allergic | 0 | 
6 | NC(=O)N1c2ccccc2C=Cc2ccccc21 [CARBAMAZEPINE] |  | 1 | 73 |  | 38 |  | 41 | 4 | 12 | AC_ANTI-M/-N/-ML CHOLANGITE DUCTOPENIE #CBP REACTIVATION_HSV6 | 1 | yes | 0 | 40 | 1 day - 8 years | 2 | Allergic, Reactive metabolite | 0 | Hepatotoxicity (moderate) ([1]; Liver): 23.8%; Hepatotoxicity (acute) ([4]; Liver): 0.2%; Hepatotoxicity (severe hepatitis) ([6]; Liver): 10
7 | CC1(C)S[C@@H]2[C@H](NC(=O)C(C(=O)O)c3ccccc3)C(=O)N2[C@H]1C(=O)O (stereo partly specified) [CARBENICILLIN] | 56 | 0 | 5 | 0.7 | 5 | 0 | 0 | 0 | 0 | RC/TICARCILLINE | 0 | yes | 0 | 13 | 4 days - 3 months | 0 | Dose-dependant | 0 | 
8 | CCOC(=O)n1ccn(C)c1=S [CARBIMAZOLE] | 0 | 0 | 18 | 0 | 5 | 3 | 14 | 0 | 1 | RC/METHIMAZOLE/BENZYLTHIOURACILE | 0 | yes | 0 | 2 | 1 day - 5 years | 2 | Allergic | 0 | 
9 | CC(=O)OCC1=C(C(=O)O)N2C(=O)[C@@H](NC(=O)CSc3ccncc3)[C@H]2SC1 [CEPHAPIRIN] | 0 | 0 | 1 | 0 | 0 | 0 | 1 | 0 | 0 | RC/CEFALOTINE | 0 | yes | 0 | 0 | 1 week | 0 | Allergic | 0 | 
10 | O=C(O)COCCN1CCN(C(c2ccccc2)c2ccc(Cl)cc2)CC1 (stereo unspecified) [CETIRIZINE] |  | 0 | 5 |  | 4 |  | 1 | 0 | 0 | AC_ANTI-MFR1 | 0 | yes | 0 | 1 | 1 day - 2 years | 0 | Allergic | 0 | Hepatotoxicity (moderate) ([1]; Liver): 3.8%; Hepatotoxicity (acute) ([4]; Liver): 0%; Hepatotoxicity (severe hepatitis) ([6]; Liver): 0
11 | O=C(O)CCCc1ccc(N(CCCl)CCCl)cc1 [CHLORAMBUCIL] | 5.3 | 1 | 7 | 4.8 | 4 | 1 | 3 | 1 | 0 | PERICHOLANGITE REACTIVATION_HVB | 1 | yes | 0 | 1 | 2 weeks - 25 months | 0 | Allergic | 0 | 
12 | CCCNC(=O)NS(=O)(=O)c1ccc(Cl)cc1 [CHLORPROPAMIDE] | 25 | 0 | 34 | 0.5 | 9 | 1 | 29 | 0 | 4 | RC/TOLBUTAMIDE/TOLAZAMIDE #CBP | 0 | yes | 0 | 3 | 2 weeks - 2 years | 0 | Allergic, Dose-dependant | 0 | 
